Assay results: patent US20240218022A1, “ANTI-VISTA MACROCYCLIC PEPTIDES AND COMPOSITIONS” (BRISTOL-MYERS SQUIBB COMPANY, priority 2022, published 2024)
Positions of bridges follow the written chain, without caps; N, C: chain ends. Non-standard residues stand in square brackets, D forms with d. Residues, ends and D or L forms follow the SMILES beside them. 2Nal = N[C@@H](Cc1ccc2ccccc2c1)C(=O)O; Tic = O=C(O)[C@@H]1Cc2ccccc2CN1; Cit = NC(=O)NCCC[C@H](N)C(=O)O; Ahp(2) = CCCCC[C@H](N)C(=O)O; NMeNle = CCCC[C@H](NC)C(=O)O; NHexGly = CCCCCCNCC(=O)O; Nle = CCCC[C@H](N)C(=O)O; Orn = NCCC[C@H](N)C(=O)O

Target: T1, mouse VISTA (mVISTA) (Mus musculus, UniProt Q9D659)
T1 construct: expressed in transfected cells; host or cells: Human embryonic kidney 293T cells
T1 sequence (Q9D659 33-308): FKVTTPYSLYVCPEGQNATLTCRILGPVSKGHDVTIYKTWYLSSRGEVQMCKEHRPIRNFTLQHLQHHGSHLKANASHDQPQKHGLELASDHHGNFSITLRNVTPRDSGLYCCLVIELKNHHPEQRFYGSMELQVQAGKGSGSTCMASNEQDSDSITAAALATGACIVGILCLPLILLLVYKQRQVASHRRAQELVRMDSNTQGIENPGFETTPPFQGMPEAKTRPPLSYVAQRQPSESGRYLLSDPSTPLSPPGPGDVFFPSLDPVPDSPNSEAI
Assay: Cell-Based Binding High-Content Assay For mVISTA (HC CBA mVISTA)
Details: cell-based binding high-content assay, mVISTA; the 16th table; read-out: HC CBA mVISTA IC50
In short: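 Competition of compound with a biotinylated peptide (final 2 nM, 30 min at RT) for binding to mVISTA on 293T cells, run under no-wash or wash (1 h compound preincubation then removal) formats. Readout by Alexa 647–streptavidin imaging on a high-content platform; four-parameter logistic fit gave IC50.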

Row | Structure (SMILES) | IC50
1 | CCCCCCN1CC(=O)N[C@@H](Cc2ccc(O)cc2)C(=O)N[C@@H](CCCCN)C(=O)NCC(=O)N[C@@H](CCCN)C(=O)N[C@@H](CC(C)C)C(=O)N[C@@H](CCCCC)C(=O)N2CCC[C@H]2C(=O)N[C@@H](C(C)C)C(=O)N[C@@H](CO)C(=O)N[C@H](C(=O)NCC(=O)O)CSCC(=O)N[C@@H](Cc2ccc3ccccc3c2)C(=O)N[C@@H](Cc2ccc(O)cc2)C(=O)N[C@@H](CC(=O)O)C1=O [Ex 1288] ({CH2CO}-[2Nal]YD[NHexGly]YKG[Orn]L[Ahp(2)]PVSCG-OH; thioether N-14) | 16.7 nM
2 | CCCCCCN1CC(=O)N[C@@H](Cc2ccc(O)cc2)C(=O)N[C@@H](CC(C)C)C(=O)NCC(=O)N[C@@H](CCCNC(=N)N)C(=O)N2Cc3ccccc3C[C@H]2C(=O)N[C@@H](CCCCC)C(=O)N2CCC[C@H]2C(=O)N[C@@H](C(C)C)C(=O)N[C@@H](CO)C(=O)N[C@H](C(=O)NCC(=O)O)CSCC(=O)N[C@@H](Cc2ccc3ccccc3c2)C(=O)N[C@@H](Cc2ccc(O)cc2)C(=O)N[C@@H](CC(=O)O)C1=O [Ex 1290] ({CH2CO}-[2Nal]YD[NHexGly]YLGR[Tic][Ahp(2)]PVSCG-OH; thioether N-14) | 11.5 nM
3 | CCCCCCN1CC(=O)N[C@@H](Cc2ccc(O)cc2)C(=O)N[C@@H](CC(C)C)C(=O)NCC(=O)N[C@@H](CCCNC(=N)N)C(=O)N(C)[C@@H](CCCC)C(=O)N[C@@H](CCCCC)C(=O)N2CCC[C@H]2C(=O)N[C@@H](C(C)C)C(=O)N[C@@H](CO)C(=O)N[C@H](C(=O)NCC(=O)O)CSCC(=O)N[C@@H](Cc2ccc3ccccc3c2)C(=O)N[C@@H](Cc2ccc(O)cc2)C(=O)N[C@@H](CC(=O)O)C1=O [Ex 1291] ({CH2CO}-[2Nal]YD[NHexGly]YLGR[NMeNle][Ahp(2)]PVSCG-OH; thioether N-14) | 5.1 nM
4 | CCCCCCN1CC(=O)N[C@@H](Cc2ccc(O)cc2)C(=O)N[C@@H](CC(C)C)C(=O)NCC(=O)N[C@@H](CCCNC(=N)N)C(=O)N[C@@H](Cc2ccc(O)cc2)C(=O)N[C@@H](CCCCC)C(=O)N2CCC[C@H]2C(=O)N[C@@H](C(C)C)C(=O)N[C@@H](CO)C(=O)N[C@H](C(=O)NCC(=O)O)CSCC(=O)N[C@@H](Cc2ccc3ccccc3c2)C(=O)N[C@@H](Cc2ccc(O)cc2)C(=O)N[C@@H](CC(=O)O)C1=O [Ex 1292] ({CH2CO}-[2Nal]YD[NHexGly]YLGRY[Ahp(2)]PVSCG-OH; thioether N-14) | 29.9 nM
5 | CCCCCCN1CC(=O)N[C@@H](Cc2ccc(O)cc2)C(=O)N[C@@H](CC(C)C)C(=O)NCC(=O)N[C@@H](CCCNC(=N)N)C(=O)N(C)[C@@H](CCCC)C(=O)N[C@@H](CCCCC)C(=O)N2CCC[C@H]2C(=O)N[C@@H](C(C)C)C(=O)N[C@@H](CO)C(=O)N[C@H](C(=O)NCC(N)=O)CSCC(=O)N[C@@H](Cc2ccc3ccccc3c2)C(=O)N[C@@H](Cc2ccc(O)cc2)C(=O)N[C@@H](CC(=O)O)C1=O [Ex 1294] ({CH2CO}-[2Nal]YD[NHexGly]YLGR[NMeNle][Ahp(2)]PVSCG-NH2; thioether N-14) | 9.3 nM
6 | CCCCCCN1CC(=O)N[C@@H](Cc2ccc(O)cc2)C(=O)N[C@@H](CC(C)C)C(=O)NCC(=O)N[C@@H](CCCNC(=N)N)C(=O)N[C@@H](Cc2ccc(O)cc2)C(=O)N[C@@H](CCCCC)C(=O)N2CCC[C@H]2C(=O)N[C@@H](C(C)C)C(=O)N[C@@H](CO)C(=O)N[C@H](C(=O)NCC(N)=O)CSCC(=O)N[C@@H](Cc2ccc3ccccc3c2)C(=O)N[C@@H](Cc2ccc(O)cc2)C(=O)N[C@@H](CC(=O)O)C1=O [Ex 1297] ({CH2CO}-[2Nal]YD[NHexGly]YLGRY[Ahp(2)]PVSCG-NH2; thioether N-14) | 35.7 nM
7 | CCCCCCN1CC(=O)N[C@@H](Cc2ccc(O)cc2)C(=O)N[C@@H](CC(C)C)C(=O)NCC(=O)N[C@@H](CCCNC(=N)N)C(=O)N[C@@H](Cc2ccc(O)cc2)C(=O)N[C@@H](CCCCC)C(=O)N2CCC[C@H]2C(=O)N[C@@H](C(C)C)C(=O)N[C@@H](CC(=O)O)C(=O)N[C@H](C(=O)NCC(N)=O)CSCC(=O)N[C@@H](Cc2ccc3ccccc3c2)C(=O)N[C@@H](Cc2ccc(O)cc2)C(=O)N[C@@H](CC(=O)O)C1=O [Ex 1298] ({CH2CO}-[2Nal]YD[NHexGly]YLGRY[Ahp(2)]PVDCG-NH2; thioether N-14) | 36.1 nM
8 | CCCCCCN1CC(=O)N[C@@H](Cc2ccc(O)cc2)C(=O)N[C@@H](CC(C)C)C(=O)NCC(=O)N[C@@H](CCCNC(=N)N)C(=O)N[C@@H](Cc2ccc(O)cc2)C(=O)N[C@@H](CCCCC)C(=O)N2CCC[C@H]2C(=O)N[C@@H](C(C)C)C(=O)N[C@@H](C(C)C)C(=O)N[C@H](C(=O)NCC(=O)O)CSCC(=O)N[C@@H](Cc2ccc3ccccc3c2)C(=O)N[C@@H](Cc2ccc(O)cc2)C(=O)N[C@@H](CC(=O)O)C1=O [Ex 1299] ({CH2CO}-[2Nal]YD[NHexGly]YLGRY[Ahp(2)]PVVCG-OH; thioether N-14) | 33.2 nM

Other lines, results leading:

Row | IC50 | Structure (SMILES)
9 | 8.3 nM | CCCCCCN1CC(=O)N[C@@H](Cc2ccc(O)cc2)C(=O)N[C@@H](CCCC)C(=O)NCC(=O)N[C@@H](CCCNC(=N)N)C(=O)N[C@@H](CC(C)C)C(=O)N[C@@H](CCCCC)C(=O)N2CCC[C@H]2C(=O)N[C@@H](C(C)C)C(=O)N[C@@H](CC(=O)O)C(=O)N[C@H](C(=O)NCC(=O)O)CSCC(=O)N[C@@H](Cc2ccc3ccccc3c2)C(=O)N[C@@H](Cc2ccc(O)cc2)C(=O)N[C@@H](CC(=O)O)C1=O [Ex 1285] ({CH2CO}-[2Nal]YD[NHexGly]Y[Nle]GRL[Ahp(2)]PVDCG-OH; thioether N-14)
10 | 39.2 nM | CCCCCCN1CC(=O)N[C@@H](Cc2ccc(O)cc2)C(=O)N[C@@H](CC(C)C)C(=O)NCC(=O)N[C@@H](CCCNC(=N)N)C(=O)N[C@@H](CC(C)C)C(=O)N[C@@H](CCCCC)C(=O)N2CCC[C@H]2C(=O)N[C@@H](C(C)C)C(=O)N[C@@H](CCC(=O)O)C(=O)N[C@H](C(=O)NCC(N)=O)CSCC(=O)N[C@@H](Cc2ccc3ccccc3c2)C(=O)N[C@@H](Cc2ccc(O)cc2)C(=O)N[C@@H](CC(=O)O)C1=O [Ex 1286] ({CH2CO}-[2Nal]YD[NHexGly]YLGRL[Ahp(2)]PVECG-NH2; thioether N-14)
11 | 42.7 nM | CCCCCCN1CC(=O)N[C@@H](Cc2ccc(O)cc2)C(=O)N[C@@H](CCCC)C(=O)NCC(=O)N[C@@H](CCCNC(=N)N)C(=O)N[C@@H](CC(C)C)C(=O)N[C@@H](CCCCC)C(=O)N2CCC[C@H]2C(=O)N[C@@H](C(C)C)C(=O)N[C@@H](CCC(=O)O)C(=O)N[C@H](C(=O)NCC(N)=O)CSCC(=O)N[C@@H](Cc2ccc3ccccc3c2)C(=O)N[C@@H](Cc2ccc(O)cc2)C(=O)N[C@@H](CC(=O)O)C1=O [Ex 1287] ({CH2CO}-[2Nal]YD[NHexGly]Y[Nle]GRL[Ahp(2)]PVECG-NH2; thioether N-14)
12 | 25.2 nM | CCCCCCN1CC(=O)N[C@@H](Cc2ccc(O)cc2)C(=O)N[C@@H](CCCCN)C(=O)N[C@@H](CC(=O)O)C(=O)N[C@@H](CCCN)C(=O)N[C@@H](CC(C)C)C(=O)N[C@@H](CCCCC)C(=O)N2CCC[C@H]2C(=O)N[C@@H](C(C)C)C(=O)N[C@@H](CO)C(=O)N[C@H](C(=O)NCC(=O)O)CSCC(=O)N[C@@H](Cc2ccc3ccccc3c2)C(=O)N[C@@H](Cc2ccc(O)cc2)C(=O)N[C@@H](CC(=O)O)C1=O [Ex 1289] ({CH2CO}-[2Nal]YD[NHexGly]YKD[Orn]L[Ahp(2)]PVSCG-OH; thioether N-14)
13 | 19.9 nM | CCCCCCN1CC(=O)N[C@@H](Cc2ccc(O)cc2)C(=O)N[C@@H](CC(C)C)C(=O)NCC(=O)N[C@@H](CCCNC(=N)N)C(=O)N[C@@H](CC(N)=O)C(=O)N[C@@H](CCCCC)C(=O)N2CCC[C@H]2C(=O)N[C@@H](C(C)C)C(=O)N[C@@H](CO)C(=O)N[C@H](C(=O)NCC(=O)O)CSCC(=O)N[C@@H](Cc2ccc3ccccc3c2)C(=O)N[C@@H](Cc2ccc(O)cc2)C(=O)N[C@@H](CC(=O)O)C1=O [Ex 1293] ({CH2CO}-[2Nal]YD[NHexGly]YLGRN[Ahp(2)]PVSCG-OH; thioether N-14)
14 | 31.4 nM | CCCCCCN1CC(=O)N[C@@H](Cc2ccc(O)cc2)C(=O)N[C@@H](CC(C)C)C(=O)NCC(=O)N[C@@H](CCCNC(=N)N)C(=O)N[C@@H](CC(N)=O)C(=O)N[C@@H](CCCCC)C(=O)N2CCC[C@H]2C(=O)N[C@@H](C(C)C)C(=O)N[C@@H](CO)C(=O)N[C@H](C(=O)NCC(N)=O)CSCC(=O)N[C@@H](Cc2ccc3ccccc3c2)C(=O)N[C@@H](Cc2ccc(O)cc2)C(=O)N[C@@H](CC(=O)O)C1=O [Ex 1295] ({CH2CO}-[2Nal]YD[NHexGly]YLGRN[Ahp(2)]PVSCG-NH2; thioether N-14)
15 | 17.3 nM | CCCCCCN1CC(=O)N[C@@H](Cc2ccc(O)cc2)C(=O)N[C@@H](CC(C)C)C(=O)NCC(=O)N[C@@H](CCCNC(=N)N)C(=O)N[C@@H](CCCCN)C(=O)N[C@@H](CCCCC)C(=O)N2CCC[C@H]2C(=O)N[C@@H](C(C)C)C(=O)N[C@@H](CO)C(=O)N[C@H](C(=O)NCC(=O)O)CSCC(=O)N[C@@H](Cc2ccc3ccccc3c2)C(=O)N[C@@H](Cc2ccc(O)cc2)C(=O)N[C@@H](CC(=O)O)C1=O [Ex 1296] ({CH2CO}-[2Nal]YD[NHexGly]YLGRK[Ahp(2)]PVSCG-OH; thioether N-14)
16 | 4.9 nM | CCCCCCN1CC(=O)N[C@@H](Cc2ccc(O)cc2)C(=O)N[C@@H](CCCC)C(=O)N[C@@H](CC(N)=O)C(=O)N[C@@H](CCCNC(N)=O)C(=O)N[C@@H](CC(C)C)C(=O)N[C@@H](CCCCC)C(=O)N2CCC[C@H]2C(=O)N[C@@H](C(C)C)C(=O)N[C@@H](CC(=O)O)C(=O)N[C@H](C(=O)NCC(=O)O)CSCC(=O)N[C@@H](Cc2ccc3ccccc3c2)C(=O)N[C@@H](Cc2ccc(O)cc2)C(=O)N[C@@H](CC(=O)O)C1=O [Ex 1300] ({CH2CO}-[2Nal]YD[NHexGly]Y[Nle]N[Cit]L[Ahp(2)]PVDCG-OH; thioether N-14)
